Experimental data as given in patent publication US10597388B2, “Pyridazinone herbicides” (FMC CORPORATION, priority 2014, dated 2020).

How the values were obtained:
Type in all cases: in vivo
[1] = system: oilseed rape (Brassica napus); experiment: Test C greenhouse herbicide test, pre- and postemergence
How it was run: (§1)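 Each species was treated both before emergence, in a loam–sand soil mix, and after emergence, as 1- to 4-leaf seedlings in peat-based potting medium. Plants stayed in the greenhouse 13 to 15 d, then were scored from 0 (no effect) to 100 (complete control) relative to controls.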

corn (Zea mays) = experiment: as above
How it was run: as §1

[2] = system: johnsongrass (Sorghum halepense); experiment: as above
How it was run: as §1

[3] = system: waterhemp (common waterhemp, Amaranthus rudis); experiment: as above
How it was run: as §1

[4] = system: crabgrass, large (large crabgrass, Digitaria sanguinalis); experiment: as above
How it was run: as §1

[5] = system: lambsquarters (Chenopodium album); experiment: as above
How it was run: as §1

[6] = system: morningglory (Ipomoea coccinea); experiment: as above
How it was run: as §1

[7] = system: foxtail, giant (giant foxtail, Setaria faberii); experiment: as above
How it was run: as §1

[8] = system: wheat (winter wheat, Triticum aestivum); experiment: as above
How it was run: as §1

kochia (Kochia scoparia) = experiment: Test A greenhouse herbicide test, pre- and postemergence
How it was run: (§2)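 Seeds sown in loam–sand blend got a preemergence directed soil spray of compound in non-phytotoxic solvent with surfactant. Postemergence treatment was given at 2–10 cm, one- to two-leaf stage. After ~10 d in greenhouse, injury was rated visually vs untreated controls, 0 (no effect) to 100 (complete control).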

[9] = system: barnyardgrass (Echinochloa crus-galli); experiment: as above
How it was run: as §2

[10] = Postemergence, 31 g ai/ha, 0 to 100 scale (0 no effect, 100 complete control)
[11] = Postemergence, 125 g ai/ha, scale 0 to 100, 0 is no effect, 100 is complete control
[12] = Postemergence, 250 g ai/ha, scale 0 to 100, 0 no effect, 100 complete control, 13 to 15 d
[13] = Preemergence, 31 g ai/ha, scale 0 to 100, 0 is no effect, 100 is complete control
[14] = Preemergence, 62 g ai/ha, scale 0 to 100, 0 is no effect, 100 is complete control
[15] = Preemergence, 125 g ai/ha, scale 0 to 100, 0 is no effect, 100 is complete control
[16] = Preemergence, 250 g ai/ha, scale 0 to 100, 0 no effect, 100 complete control
[17] = postemergence, 62 g ai/ha, scale 0 to 100, 0 no effect, 100 complete control
[18] = Postemergence, 125 g ai/ha, 0 to 100 scale where 0 is no effect and 100 is complete control
[19] = Postemergence, 500 g ai/ha, 0 to 100 scale, 0 is no effect, 100 is complete control
[20] = Preemergence, 125 g ai/ha, 0 to 100 scale where 0 is no effect and 100 is complete control
[21] = Preemergence, 500 g ai/ha, 0 to 100 scale, 0 no effect, 100 complete control

In the case of CCc1sc2c(C)cc(C)cc2c1-c1c(O)c(C)nn(C)c1=O [Compound 57], the “Oilseed Rape plant response rating” value [1, 10] is reported as 0, the “Plant response rating, Oilseed Rape” value [1, 11] is reported as 0 and the “Plant response rating, Oilseed Rape” value [1, 12] is reported as 5. The “Plant response rating, Oilseed Rape” value [1, 13] was 0, the “Plant response rating, Oilseed Rape” value [1, 14] was 0 and the “Plant response rating, Oilseed Rape” value [1, 15] was 30. For the same molecule, the “Oilseed Rape plant response rating” value [1, 16] was 60, the “Oilseed Rape plant response rating” value [1, 17] was 0 and the “Corn plant response rating” value (corn (Zea mays); [10]) was 0. For the same molecule, the “Plant response rating, Corn” value (corn (Zea mays); [11]) was 5, the “Plant response rating, Corn” value (corn (Zea mays); [12]) was 10 and the “Plant response rating, Corn” value (corn (Zea mays); [13]) was 0. The “Plant response rating, Corn” value (corn (Zea mays); [15]) was 0, the “Corn plant response rating” value (corn (Zea mays); [16]) was 35 and the “Corn plant response rating” value (corn (Zea mays); [17]) was 5. For the same molecule, the “Johnsongrass plant response rating” value [2, 10] was 5, the “Plant response rating, Johnsongrass” value [2, 11] was 5 and the “Plant response rating, Johnsongrass” value [2, 12] was 10. The “Plant response rating, Johnsongrass” value [2, 13] was 0, the “Plant response rating, Johnsongrass” value [2, 14] was 0 and the “Plant response rating, Johnsongrass” value [2, 15] was 0. For the same molecule, the “Johnsongrass plant response rating” value [2, 16] was 0, the “Johnsongrass plant response rating” value [2, 17] was 5 and the “Waterhemp plant response rating” value [3, 10] was 50. The “Plant response rating, Waterhemp” value [3, 11] was 85, the “Plant response rating, Waterhemp” value [3, 12] was 100 and the “Plant response rating, Waterhemp” value [3, 13] was 90. The “Plant response rating, Waterhemp” value [3, 14] was 98, the “Plant response rating, Waterhemp” value [3, 15] was 100 and the “Waterhemp plant response rating” value [3, 16] was 100. The “Waterhemp plant response rating” value [3, 17] was 65, the “Crabgrass, Large plant response rating” value [4, 10] was 10 and the “Plant response rating, Crabgrass, Large” value [4, 11] was 30. The “Plant response rating, Crabgrass, Large” value [4, 12] was 35, the “Plant response rating, Crabgrass, Large” value [4, 13] was 0 and the “Plant response rating, Crabgrass, Large” value [4, 14] was 35. For the same molecule, the “Plant response rating, Crabgrass, Large” value [4, 15] was 98, the “Crabgrass, Large plant response rating” value [4, 16] was 100 and the “Crabgrass, Large plant response rating” value [4, 17] was 20. For the same molecule, the “Lambsquarters plant response rating” value [5, 10] was 70, the “Plant response rating, Lambsquarters” value [5, 11] was 95 and the “Plant response rating, Lambsquarters” value [5, 12] was 90. The “Plant response rating, Lambsquarters” value [5, 13] was 100, the “Plant response rating, Lambsquarters” value [5, 14] was 100 and the “Plant response rating, Lambsquarters” value [5, 15] was 100. The “Lambsquarters plant response rating” value [5, 16] was 100, the “Lambsquarters plant response rating” value [5, 17] was 70 and the “Morningglory plant response rating” value [6, 10] was 95. For the same molecule, the “Plant response rating, Morningglory” value [6, 11] was 100, the “Plant response rating, Morningglory” value [6, 12] was 100 and the “Plant response rating, Morningglory” value [6, 13] was 100. The “Plant response rating, Morningglory” value [6, 14] was 100, the “Plant response rating, Morningglory” value [6, 15] was 100 and the “Morningglory plant response rating” value [6, 16] was 100. The “Morningglory plant response rating” value [6, 17] was 100, the “Foxtail, Giant plant response rating” value [7, 10] was 70 and the “Plant response rating, Foxtail, Giant” value [7, 11] was 85. For the same molecule, the “Plant response rating, Foxtail, Giant” value [7, 12] was 95, the “Plant response rating, Foxtail, Giant” value [7, 13] was 45 and the “Plant response rating, Foxtail, Giant” value [7, 14] was 80. For the same molecule, the “Plant response rating, Foxtail, Giant” value [7, 15] was 90, the “Foxtail, Giant plant response rating” value [7, 16] was 100 and the “Foxtail, Giant plant response rating” value [7, 17] was 70. For the same molecule, the “Wheat plant response rating” value [8, 10] was 0, the “Plant response rating, Wheat” value [8, 11] was 0 and the “Plant response rating, Wheat” value [8, 12] was 5. The “Plant response rating, Wheat” value [8, 13] was 0, the “Plant response rating, Wheat” value [8, 14] was 0 and the “Plant response rating, Wheat” value [8, 15] was 0. For the same molecule, the “Wheat plant response rating” value [8, 16] was 5, the “Wheat plant response rating” value [8, 17] was 0 and the “Plant response rating, Kochia” value (kochia (Kochia scoparia); [18]) was 80. The “Kochia plant response rating” value (kochia (Kochia scoparia); [19]) was 100, the “Kochia plant response rating” value (kochia (Kochia scoparia); [20]) was 100 and the “Plant response rating, Kochia” value (kochia (Kochia scoparia); [21]) was 100. For the same molecule, the “Plant response rating, Barnyardgrass” value [9, 18] was 90, the “Barnyardgrass plant response rating” value [9, 19] was 100 and the “Barnyardgrass plant response rating” value [9, 20] was 100. For the same molecule, the “Plant response rating, Barnyardgrass” value [9, 21] was 100.
